In the NIST ThermoML archive (doi:10.1016/j.tca.2014.07.018):

Assay: molar heat capacity at saturation pressure
Conditions: Crystal, Small (less than 1 g) adiabatic calorimetry

C1C2CC3CC1CC(c1nnn[nH]1)(C2)C3 [5-(1-adamantyl)tetrazole]
Conditions | molar heat capacity [J/K/mol]
5.162 K | 0.5343
5.486 K | 0.6514
5.811 K | 0.7886
6.141 K | 0.9446
6.535 K | 1.157
6.999 K | 1.433
7.466 K | 1.748
7.944 K | 2.099
8.427 K | 2.496
8.915 K | 2.914
9.407 K | 3.374
9.905 K | 3.847
10.47 K | 4.424
11.12 K | 5.106
11.77 K | 5.817
12.42 K | 6.568
13.1 K | 7.361
13.77 K | 8.166
14.45 K | 9.013
15.14 K | 9.87
15.93 K | 10.87
16.83 K | 12.03
17.74 K | 13.17
18.65 K | 14.31
19.56 K | 15.45
20.76 K | 16.96
22.25 K | 18.79
23.76 K | 20.65
25.27 K | 22.46
26.78 K | 24.22
28.31 K | 25.96
29.59 K | 27.43
31.31 K | 29.26
33.16 K | 31.15
35.01 K | 33.01
36.86 K | 34.76
38.72 K | 36.52
40.58 K | 38.18
42.54 K | 39.91
44.6 K | 41.62
46.67 K | 43.41
48.74 K | 45.04
50.82 K | 46.64
52.9 K | 48.22
54.99 K | 49.8
57.07 K | 51.31
59.17 K | 52.73
61.28 K | 54.19
63.38 K | 55.67
65.49 K | 57.06
67.6 K | 58.52
69.71 K | 59.93
71.92 K | 61.4
74.24 K | 62.88
76.57 K | 64.45
78.7 K | 65.87
78.9 K | 65.93
80.66 K | 67.14
81.23 K | 67.48
82.56 K | 68.36
83.56 K | 68.98
84.46 K | 69.59
86.37 K | 70.82
88.29 K | 72.06
90.2 K | 73.3
92.12 K | 74.53
94.04 K | 75.78
95.96 K | 77.1
97.9 K | 78.34
99.83 K | 79.61
101.75 K | 80.79
103.69 K | 82.06
105.62 K | 83.32
107.56 K | 84.62
109.51 K | 85.87
111.45 K | 87.18
113.4 K | 88.45
115.36 K | 89.75
117.32 K | 91.05
119.27 K | 92.33
121.23 K | 93.59
123.19 K | 94.91
125.16 K | 96.2
127.12 K | 97.48
129.09 K | 98.86
131.06 K | 100.1
133.04 K | 101.5
135.02 K | 102.8
137 K | 104.2
138.98 K | 105.5
140.97 K | 106.9
142.95 K | 108.3
144.93 K | 109.7
146.93 K | 111.1
148.92 K | 112.6
150.91 K | 114
152.9 K | 115.4
154.89 K | 116.8
156.89 K | 118.3
158.89 K | 119.8
160.89 K | 121.3
162.89 K | 122.7
164.89 K | 124.3
166.9 K | 125.8
168.9 K | 127.4
170.91 K | 128.9
172.92 K | 130.5
174.93 K | 132
176.93 K | 133.7
178.93 K | 135.1
180.94 K | 136.8
182.95 K | 138.3
184.97 K | 140.1
186.99 K | 141.6
189 K | 143.3
191.02 K | 144.9
193.03 K | 146.6
195.05 K | 148.4
197.07 K | 150.1
199.09 K | 151.7
201.1 K | 153.4
203.13 K | 155.1
205.16 K | 156.8
207.18 K | 158.6
209.21 K | 160.4
211.24 K | 162.1
213.27 K | 163.9
215.3 K | 165.7
217.33 K | 167.6
219.37 K | 169.4
221.4 K | 171.2
223.43 K | 173
224.08 K | 173.6
225.46 K | 174.9
226.05 K | 175.4
227.5 K | 176.8
228.08 K | 177.3
230.12 K | 179.2
232.16 K | 181.1
234.19 K | 183.1
236.23 K | 184.9
238.27 K | 186.8
240.31 K | 188.8
242.35 K | 190.8
244.39 K | 192.5
246.43 K | 194.5
248.47 K | 196.4
250.51 K | 198.4
252.55 K | 200.3
254.59 K | 202.2
256.64 K | 204.1
258.68 K | 206.2
260.73 K | 208
262.77 K | 209.9
264.81 K | 211.9
266.86 K | 213.7
268.9 K | 215.5
270.94 K | 217.3
272.99 K | 219.2
275.03 K | 221
277.08 K | 222.9
279.13 K | 224.5
281.18 K | 226.3
283.22 K | 227.9
285.27 K | 229.8
287.32 K | 231.5
289.37 K | 233.1
291.42 K | 234.7
293.46 K | 236.3
295.51 K | 237.9
297.56 K | 239.7
299.61 K | 241.3
301.65 K | 242.8
303.7 K | 244.6
305.75 K | 246
307.8 K | 247.6
309.86 K | 249.2
311.91 K | 250.7
313.96 K | 252.3
316.02 K | 253.9
318.07 K | 255.5
320.14 K | 256.9
322.2 K | 258.6
324.26 K | 260.2
326.32 K | 261.8
328.38 K | 263.2
330.44 K | 264.8
332.5 K | 266.3
334.57 K | 267.8
336.63 K | 269.4
338.69 K | 270.9
340.76 K | 272.4
342.83 K | 274.2
344.9 K | 275.7
346.97 K | 277.1
349.04 K | 278.9
351.11 K | 280.5
353.2 K | 282.1
355.27 K | 283.8
357.34 K | 285.5
359.41 K | 287.2
361.48 K | 288.9
363.56 K | 290.4
365.63 K | 292
367.7 K | 293.7
